Laboratory results: patent US8298522B1, “Methods of modulating MUC1 expression to inhibit inflammation” (priority 2005, dated 2012)
*1 amine or outer side, *2 acyl side, *3 side chain or, on linkers, in order; H or OH if unused. Where a SMILES comes first, the peptide text is derived from it. Bridges are numbered along the chain shown (N, C = ends). Roman numbers before positions name the chains, in order. [ ]: non-standard residue; d: D form. Actinocin(9to1) = Cc1c2oc3c(C)ccc(C(=O)[*:1])c3nc-2c(C(=O)[*:2])c(N)c1=O; NMeV = CN[C@H](C(=O)O)C(C)C; d = 2'-deoxy (DNA); Sar = CNCC(=O)O; r = 2'-OH (RNA)

Legend:
[1] = test system: MUC1 transcription (MEK/ERK signaling pathway); assay: TNF-α induced MUC1 expression in A549 lung epithelial cells; assay type: cell-based, human
Excerpt: TNF-α induces MUC1 expression through a MAP kinase pathway in human lung epithelial cells. TNF-α stimulates MUC1 transcription and protein expression in lung epithelial cells. Activation of MAP kinases and NF-κB was verified using Western blot analysis. […] TNF-α activate all three MAP kinases (ERK, p38, and JNK) as well as NF-κB. […] TNF-α stimulates MUC1 production in A549 cells through transcriptional activation via the MEK/ERK signaling pathway.

[2] = test system: MUC1 protein in A549 cells; conditions: A549 cells, 5.0 μg/ml AcD or 10 μg/ml Chx, no NE
Procedure: Confluent A549 cells were incubated in the presence or absence of 5.0 μg/ml of actinomycin (AcD) or 10 μg/ml of cycloheximide (Chx) for 1 hr and either non-treated or treated for 24 hr with 100 nM of NE. MUC1 protein levels in cell lysates (A) and spent media (B) were measured by ELISA. Each bar represents the mean±SEM (n=3). […] (C) Aliquots of spent media obtained from confluent A549 cells were non-treated (0 hr) or treated for 24 hr with 100 nM NE or vehicle control and MUC1 levels in the spent media determined by ELISA. Each bar represents the mean±SEM (n=3).
A549 cells were seeded at 5.0×10^4 cells/well in 24-well plates in Dulbecco's Modified Eagle Medium (DMEM) containing 10% fetal bovine serum (FBS), 100 U/ml penicillin, and 100 μg/ml streptomycin (all from Invitrogen, Carlsbad, Calif.) and incubated at 37° C. in a humidified CO2 incubator. Confluent monolayers were washed with serum-free DMEM and treated with 100 nM (2.6 U/ml) NE or vehicle control (PBS) for 24 hr. In some experiments, the cells were pretreated for 1 hr with 5.0 μg/ml of actinomycin D or 10 μg/ml of cycloheximide prior to NE treatment. Following treatment, cell-conditioned media were collected, and the cells were washed with PBS and lysed with 500 μl/well of PBS containing 1.0% Triton X-100, 1.0% sodium deoxycholate, 1.0% protease inhibitor cocktail, and 2.0 mM phenylmethylsulfonyl fluoride (PMSF). Lysates and conditioned media were incubated for 20 min at 80° C. to inactivate residual NE, insoluble material removed by centrifugation at 14,000×g for 10 min at 4° C., and protein concentrations measured by the procedure of Bradford using bovine serum albumin as standard.
ELISA. A549 cell lysates or cell-conditioned culture media were centrifuged at 10,000×g for 10 min at 4° C., added in triplicate to 96-well ELISA plates (MaxiSorb™, Nalge Nunc, Rochester, N.Y.), and incubated overnight at 4° C. Wells were blocked for 1 hr at room temperature (about 22° C.) with PBS, pH 7.0, containing 10 mg/ml BSA and 50 mg/ml sucrose and washed with PBS containing 0.05% Tween 20 (PBS-T). The samples were reacted for 2 hr at room temperature with 200 μg/ml of primary MUC1 antibody (GP1.4), washed with PBS-T, reacted for 2 hr at room temperature with 200 μg/ml of secondary antibody (peroxidase-conjugated goat antimouse IgG) (KPL, Gaithersburg, Md.), and washed with PBS-T. Bound antibodies were detected with tetramethylbenzidine substrate (SureBlue™, KPL), the substrate reaction stopped with 1 N HCl, and absorbencies at 450 nm measured using a microplate spectrophotometer (Dexall, Gaithersburg, Md.).

[3] = target: T1, TLR5 (Homo sapiens, UniProt O60602); assay: cell-based or functional assay
T1 sequence (O60602 21-858): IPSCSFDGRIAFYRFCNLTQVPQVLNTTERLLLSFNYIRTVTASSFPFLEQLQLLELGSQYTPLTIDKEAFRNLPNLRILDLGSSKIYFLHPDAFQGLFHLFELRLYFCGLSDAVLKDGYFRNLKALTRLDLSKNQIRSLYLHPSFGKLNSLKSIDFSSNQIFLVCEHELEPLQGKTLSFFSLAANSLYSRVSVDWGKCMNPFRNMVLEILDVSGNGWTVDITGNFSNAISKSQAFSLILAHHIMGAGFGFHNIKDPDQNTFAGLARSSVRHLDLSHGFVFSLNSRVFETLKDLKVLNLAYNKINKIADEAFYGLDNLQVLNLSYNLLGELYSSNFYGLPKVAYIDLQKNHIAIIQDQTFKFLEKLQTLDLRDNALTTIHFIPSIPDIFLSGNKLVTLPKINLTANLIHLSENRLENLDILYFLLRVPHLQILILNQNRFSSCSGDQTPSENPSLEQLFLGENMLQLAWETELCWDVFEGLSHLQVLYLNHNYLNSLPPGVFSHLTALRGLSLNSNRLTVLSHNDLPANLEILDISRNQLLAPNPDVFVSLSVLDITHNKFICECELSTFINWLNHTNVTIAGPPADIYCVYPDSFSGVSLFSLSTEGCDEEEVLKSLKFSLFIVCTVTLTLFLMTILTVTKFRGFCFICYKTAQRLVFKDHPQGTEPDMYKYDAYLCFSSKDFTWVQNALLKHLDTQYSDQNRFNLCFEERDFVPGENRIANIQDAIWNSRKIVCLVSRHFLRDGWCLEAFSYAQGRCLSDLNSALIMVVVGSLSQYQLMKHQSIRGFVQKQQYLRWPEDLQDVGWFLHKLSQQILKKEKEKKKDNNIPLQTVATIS

[4] = test system: IL-8 levels in primary NHBE cells; assay: Flagellin-induced IL-8 levels in MUC1 siRNA-treated primary NHBE cells; assay type: cell-based, human; conditions: 10 ng/ml flagellin 6 h, basolateral medium
Procedure: (§1) Primary NHBE cells were nucleofected with 1.5 μg of a MUC1 siRNA or a non-targeting control RNA. At 48 h post-nucleofection, total MUC1 protein was determined by immunoblotting as described (20) (A) and cell surface MUC1 was determined by FACS analysis using anti-MUC1 (GP1.4, mouse IgG1, κ, Biomeda) as primary antibody and R-Phycoerythrin-conjugated goat anti-mouse IgG (Santa Cruz) as secondary antibody. Mouse IgG1 (κ isotype, eBioscience) was used as primary antibody to determine threshold fluorescence signal. (B). (C) Cells were stimulated with 10 ng/ml of flagellin for 6 h and IL-8 levels in basolateral medium were measured.
(§2) Macrophages were harvested from BALF or the peritoneal space, and erythrocytes lysed with 10 mM Tris-HCl, pH 7.2 containing 150 mM NH4Cl. Peritoneal macrophages (PM) were harvested after treating mice i.p. with 3% thioglycollate for 3 days. The recovered cells consisted of >95% macrophages as determined by immunofluorescence using the F4/80 macrophage marker (eBioscience). […]
(§3) Mouse KC and TNF-α and human IL-8 were quantified by ELISA using commercially available antibodies (eBioscience; R&D Systems). All samples were analyzed in triplicate and standard curves were performed on each plate.

[5] = test system: ELAM-1 promoter activity in A549 lung carcinoma cells; assay: ELAM-1 promoter-luciferase assay in A549 cells after MUC1 siRNA transfection; assay type: cell-based, human; conditions: 8.0 nM siRNA 24 h, 10 ng/ml flagellin 6 h
Procedure: To assess the effects of endogenous MUC1 expression on NF-κB activation, ELAM-1 promoter activity in A549 lung carcinoma cells following transfection with MUC1 with small interfering RNA (siRNA) duplexes was measured. Inhibition of MUC1 expression was confirmed by FACS analysis following treatment with the MUC1 siRNA but not a control RNA (data not shown).
Referring now to FIG. 3, twenty four hours after transfection with the control RNA or MUC1 siRNA, A549 cells were treated with 10 ng/ml of flagellin or an equivalent amount of the fliC control for 6 hours. Cell lysates were prepared and luciferase activity measured as indicated in the examples section. […]
HEK293T and A549 cells were seeded in 24-well plates at 2×10^5 and 5×10^4 cells/well respectively, incubated overnight, and transfected with the 0.4 μg/well of the NF-κB responsive pELAM-1 promoter-luciferase plasmid and 10 ng/well of the phRL-TK plasmid (Promega) as an internal control using 2 μl/well of Lipofectamine™2000 (Invitrogen) according to the manufacturer's instructions. The cells were incubated for 24 h at 37° C. in 5% CO2, treated with 10 ng/ml PAK flagellin or an equivalent volume of the fliC negative control for 6 h, and relative luciferase activity determined. […] Data are expressed as mean relative luciferase activity±SEM of triplicate or quadruplicate determinations.

[6] = test system: MUC1; assay: MUC1 siRNA knockdown of MUC1 expression in primary NHBE cells (immunoblot, FACS); assay type: cell-based, human; conditions: 1.5 μg siRNA, vs control RNA
Procedure: as §1
as §2, with “(eBioscience). Cells were seeded in 24-well tissue culture plates at 1.0×10^5 cells/well in DMEM containing 10% FBS, […], and allowed to adhere for 24 h before flagellin or LPS (PA10, Sigma) treatment.” for “(eBioscience).”

[7] = test system: ELAM-1 promoter (NF-κB activation, TLR5 signaling) in HEK293T cells; assay: ELAM-1 promoter-luciferase reporter assay in HEK293T cells; assay type: cell-based, human; conditions: 10 ng/ml PAK flagellin, 6 h
Excerpt: The relationship between TLR5 and MUC1 signaling in response to flagellin was investigated utilizing TLR5-expressing cells in the absence or presence of MUC1 expression. Initially, we screened a number of different airway and non-airway cell lines by Western blotting and/or real-time PCR with the goal of identifying a TLR5+/MUC1− host cells for transfection of the pMUC1 expression plasmid. Referring now to FIG. 1A, (A) HEK293T cells were transfected with pcDNA3.1 empty vector or the pMUC1 expression plasmid. After trypsinization, cells were reacted with normal mouse IgG or mouse anti-MUC1 antibody followed by PE-conjugated goat anti-mouse IgG antibody and examined by FACS analysis. […] Cell lysates were prepared and relative luciferase activity measured as indicated in Materials and Methods. […]
HEK293T and A549 cells were seeded in 24-well plates at 2×10^5 and 5×10^4 cells/well respectively, incubated overnight, and transfected with the 0.4 μg/well of the NF-κB responsive pELAM-1 promoter-luciferase plasmid and 10 ng/well of the phRL-TK plasmid (Promega) as an internal control using 2 μl/well of Lipofectamine™2000 (Invitrogen) according to the manufacturer's instructions. The cells were incubated for 24 h at 37° C. in 5% CO2, treated with 10 ng/ml PAK flagellin or an equivalent volume of the fliC negative control for 6 h, and relative luciferase activity determined. […]

[8] = target: T1, TLR5; assay: Flagellin-driven IL-8 release in HEK293T cells with or without transfected TLR5; assay type: cell-based; parameters: V5-His (vector pEF6/V5-His); expressed in transfected cells; host or cells: HEK293T
Procedure: TLR5 mediates flagellin-stimulated innate immune responses. Because TLR5 and MUC1/Muc1 are flagellin receptors and both are expressed by airway macrophages and epithelial cells the relationship between MUC1 and TLR5 in response to flagellin in HEK293T cells stably transfected with a MUC1 expressing plasmid and flagellin-driven IL-8 release was determined following transient transfection with a TLR5 expressing plasmid. HEK293T cells express TLR5 but not MUC1. […] Flagellin-induced increase in IL-8 release was completely abolished in cells co-transfected with MUC1 and TLR5. […] HEK293T cells stably transfected with the pcDNA3.1 empty vector (A) or plasmids encoding the full-length MUC1 or MUC1-ACT (B) were transiently transfected with a TLR5 expression plasmid or empty vector. At 24 h post-transfection, the cells were treated for 6 h with 10 ng/ml of flagellin or PBS, and IL-8 levels in medium were measured. […]
as §3

TNF-α
effect on MUC1 protein and mRNA levels ([1]; human lung epithelial (A549) cells): increased both MUC1 protein and mRNA levels

Cc1c2oc3c(C)ccc(C(=O)N[C@@H]4C(=O)N[C@H](C(C)C)C(=O)N5CCC[C@H]5C(=O)N(C)CC(=O)N(C)[C@@H](C(C)C)C(=O)O[C@@H]4C)c3nc-2c(C(=O)N[C@@H]2C(=O)N[C@H](C(C)C)C(=O)N3CCC[C@H]3C(=O)N(C)CC(=O)N(C)[C@@H](C(C)C)C(=O)O[C@@H]2C)c(N)c1=O [AcD, actinomycin D] (I: T[dV]P[Sar][NMeV] / II: T[dV]P[Sar][NMeV]; ester I:1-I:C, II:1-II:C; linker I:N-II:N via Actinocin(9to1))
effect of treatment alone on cellular MUC1 levels [2]: did not significantly affect

N#CC(=C(/N)Sc1ccccc1N)/C(C#N)=C(\N)Sc1ccccc1N [U0126]
effect on TNF-α induced MUC1 transcription ([1]; A549 cells, pretreatment with U0126): completely blocked

P. aeruginosa strain K (PAK) flagellin (from UniProt P21184 2-394) (ligand)
IL-8 release (HEK293T cells transfected with empty vector, endogenous TLR5; 10 ng/ml flagellin for 6 h vs PBS) [3]: 55 % increase
IL-8 release (HEK293T cells transiently transfected with TLR5 expression plasmid; 10 ng/ml flagellin for 6 h vs PBS) [3]: 164 % increase
relative luciferase activity (ELAM-1 promoter-luciferase reporter, HEK293T cells, 10 ng/ml flagellin vs fliC negative control) [3]: 10 fold

MUC1 siRNA: 21-bp siRNA with a sequence derived from the MUC1 gene (Dharmacon); sense SEQ ID NO: 2, antisense SEQ ID NO: 3 (sense GUUCAGUGCCCAGCUCUACTT; antisense GUAGAGCUGGGCACUGAACTT; sugars from the 5' end r19 d2, backbone not given here)
greater flagellin-induced IL-8 levels compared with control RNA [4]: 50%
effect on flagellin-induced ELAM-1 promoter activity compared with control RNA [5]: significantly increased
decrease in the number of cells with surface MUC1 expression ([6]; 48 h, FACS): 67%
knockdown of total cellular MUC1 expression ([6]; 48 h post-nucleofection, immunoblot): approximately 95%

C[C@@H]1C[C@@H]([C@H](O)CC2CC(=O)NC(=O)C2)C(=O)[C@@H](C)C1 [Chx, cycloheximide]
effect of treatment alone on cellular MUC1 levels [2]: did not significantly affect

B1: PAK flagellin: P. aeruginosa strain K flagellin purified by differential centrifugation, single 50 kDa protein band (protein)
chain: ALTVNTNIASLNTQRNLNNSSASLNTSLQRLSTGSRINSAKDDAAGLQIANRLTSQVNGLNVATKNANDGISLAQTAEGALQQSTNILQRMRDLSLQSANGSNSDSERTALNGEVKQLQKELDRISNTTTFGGRKLLDGSFGVASFQVGSAANEIISVGIDEMSAESLNGTYFKADGGGAVTAATASGTVDIAIGITGGSAVNVKVDMKGNETAEQAAAKIAAAVNDANVGIGAFSDGDTISYVSKAGKDGSGAITSAVSGVVIADTGSTGVGTAAGVTPSATAFAKTNDTVAKIDISTAKGAQSAVLVIDEAIKQIDAQRADLGAVQNRFDNTINNLKNIGENVSAARGRIEDTDFAAETANLTKNQVLQQAGTAILAQANQLPQSVLSLLR
increase in relative luciferase activity (ELAM-1 promoter) compared with fliC negative control [7]: greater than 10 fold
increase in IL-8 release compared with PBS treatment ([8]; HEK293T cells transfected with TLR5, 10 ng/ml flagellin 6 h): 164%
increase in IL-8 release compared with PBS treatment ([8]; HEK293T cells transfected with empty vector, 10 ng/ml flagellin 6 h): 55%
